According to US8871946B2, “Benzimidazole-4-carboxamide derivatives, their preparation methods, pharmaceutical compositions and their uses” (Zhejiang Medicine Co., Ltd. Xinchang Pharmaceutical Factory, priority 2009, dated 2014):
Converted amounts (≈) assume the structure as drawn.

System: coxsackie B3 viruses
Test: Measures of anti-coxsackie B3 viruses activity of the compounds in Vero cells
Assay type: cell-based
Conditions: half inhibitory concentration for viruses
Description: Measures of Anti-Coxsackie B3 Viruses Activity of the Compounds The products are applied for measures of antivirus properties of Vero cells. Refer to the results of Table 3: datum of anti-coxsackie B3 viruses activities of some compounds. […] IC50 indicates half inhibitory concentration for viruses. RBV indicates triazole nucleoside, is also called ribavirin, virazole.

Row | Structure (SMILES) | IC50 [µg/mL]
1 | Nc1ccc(NC(=O)c2cccc3[nH]c(-c4cccnn4)nc23)cc1 [2-(3-pyridazinyl)-1H-benzimidazole-4-(N-p-aminophenyl)amide] | 10.2 (≈ 30.9 µM)
2 | CC(NC(=O)c1cccc2[nH]c(-c3cccnc3)nc12)C(O)c1ccc(Cl)cc1 (stereo not shown) [2-(3-pyridyl)-1H-benzimidazole-4-[N-(1-methyl-2-p-chlorophenylhydroxyethyl)]amide] | 2.37 (≈ 5.82 µM)
3 | Nc1ncnc(Cl)c1-c1nc2c(C(=O)Nc3ccccc3F)cccc2[nH]1 [2-(4-amino-6-chloro-5-pyrimidinyl)-1H-benzimidazole-4-(N-o-fluorophenyl)amide] | 11.3 (≈ 29.5 µM)
4 | Nc1ncnc(Cl)c1-c1nc2c(C(=O)Nc3ccccc3O)cccc2[nH]1 [2-(4-amino-6-chloro-5-pyrimidinyl)-1H-benzimidazole-4-(N-o-hydroxyphenyl)amide] | 12.3 (≈ 32.3 µM)
5 | Nc1ccc(NC(=O)c2cccc3[nH]c(-c4c(N)ncnc4Cl)nc23)cc1 [2-(4-amino-6-chloro-5-pyrimidinyl)-1H-benzimidazole-4-(N-p-aminophenyl)amide] | 14.1 (≈ 37.1 µM)
6 | CN(C)c1ccnc(-c2nc3c(C(=O)Nc4ccc(N)cc4)cccc3[nH]2)c1 [2-(4-dimethylaminopyridyl)-1H-benzimidazole-4-(N-p-aminophenyl)amide] | 10.2 (≈ 27.4 µM)
7 | COc1ccnc(-c2nc3c(C(=O)Nc4ccccc4O)cccc3[nH]2)c1 [2-(4-methoxypyridyl)-1H-benzimidazole-4-(N-o-hydroxyphenyl)amide] | 16.2 (≈ 45 µM)
8 | COc1ccnc(-c2nc3c(C(=O)Nc4ccc(N)cc4)cccc3[nH]2)c1 [2-(4-methoxypyridyl)-1H-benzimidazole-4-(N-p-aminophenyl)amide] | 13.4 (≈ 37.3 µM)
9 | Cc1nc(-c2nc3c(C(=O)Nc4ccccc4F)cccc3[nH]2)sc1N [2-(4-methyl-5-aminothiazolyl)-1H-benzimidazole-4-(N-o-fluorophenyl)amide] | 10.2 (≈ 27.8 µM)
10 | Cc1nc(-c2nc3c(C(=O)Nc4ccc(N)cc4)cccc3[nH]2)sc1N [2-(4-methyl-5-aminothiazolyl)-1H-benzimidazole-4-(N-p-aminophenyl)amide] | 9.8 (≈ 26.9 µM)
11 | Nc1ccc(-c2nc3c(C(=O)Nc4ccccc4F)cccc3[nH]2)s1 [2-(5-amino-2-thienyl)-1H-benzimidazole-4-(N-o-fluorophenyl)amide] | 3.5 (≈ 9.93 µM)
12 | Cc1ccccc1NC(=O)c1cccc2[nH]c(-c3ccc(N)s3)nc12 [2-(5-amino-2-thienyl)-1H-benzimidazole-4-(N-o-methylphenyl)amide] | 8.7 (≈ 25 µM)
13 | Nc1ccc(-c2nc3c(C(=O)Nc4ccc(O)cc4)cccc3[nH]2)s1 [2-(5-amino-2-thienyl)-1H-benzimidazole-4-(N-p-hydroxyphenyl)amide] | 6.5 (≈ 18.6 µM)
14 | Cc1ccc(-c2nc3c(C(=O)Nc4ccccc4O)cccc3[nH]2)s1 [2-(5-methy-2-thienyl)-1H-benzimidazole-4-(N-o-hydroxyphenyl)amide] | 18.5 (≈ 52.9 µM)
15 | CC(NC(=O)c1cccc2[nH]c(-c3ccc([N+](=O)[O-])s3)nc12)C(O)c1ccc(Cl)cc1 (stereo not shown) [2-(5-nitro-2-thienyl)-1H-benzimidazole-4-(N-(1-methyl-2-p-chlorophenylhydroxyethyl))-amide] | 7.12 (≈ 15.6 µM)
16 | O=C(Nc1ccccc1F)c1cccc2[nH]c(-c3ccc([N+](=O)[O-])s3)nc12 [2-(5-nitro-2-thienyl)-1H-benzimidazole-4-(N-(2-fluorophenyl))-amide] | >9.25
17 | Cn1cccc1-c1nc2c(C(=O)Nc3ccccc3F)cccc2[nH]1 [2-(N-methyl-2-pyrrolyl)-1H-benzimidazole-4-(N-o-fluorophenyl)amide] | 13.2 (≈ 39.5 µM)
18 | O=C(Nc1ccccc1F)c1cccc2[nH]c(N3CCNCC3)nc12 [2-N-piperazinyl-1H-benzimidazole-4-(N-o-fluorophenyl)amide] | 4.8 (≈ 14.1 µM)
19 | Nc1ccc(NC(=O)c2cccc3[nH]c(N4CCNCC4)nc23)cc1 [2-N-piperazinyl-1H-benzimidazole-4-(N-p-aminophenyl)amide] | 6.3 (≈ 18.7 µM)
20 | O=C(Nc1ccccc1F)c1cccc2[nH]c(-c3cccs3)nc12 [2-thienyl-1H-benzimidazole-4-(N-(2-fluorophenyl)-amide] | 1.06 (≈ 3.14 µM)
21 | Nc1ccc(NC(=O)c2cccc3[nH]c(-c4cncs4)nc23)cc1 [5-thiazolyl-1H-benzimidazole-4-(N-p-aminophenyl)amide] | 13.5 (≈ 40.3 µM)

Now from value to compound:

Row | IC50 [µg/mL] | Structure (SMILES)
22 | 9.2 (≈ 19.6 µM) | CN1CCN(C)C(c2nc3c(C(=O)NC(CO)C(O)c4ccc([N+](=O)[O-])cc4)cccc3[nH]2)C1 (stereo not shown) [(L)-2-(2-N-methyl-4-N-methylpiperazinyl)-1H-benzimidazole-4-[N-(1-hydroxymethyl-2-p-nitrophenylhydroxyethyl)]amide]
23 | 12.0 (≈ 23.5 µM) | O=C(NC(CO)C(O)c1ccc([N+](=O)[O-])cc1)c1cccc2[nH]c(-c3cnc(-c4ccccc4)nc3)nc12 (stereo not shown) [(L)-2-(2-phenyl-5-pyrimidinyl)-1H-benzimidazole-4-[N-(1-hydroxymethyl-2-p-nitrophenylhydroxyethyl)]amide]
24 | 17.2 (≈ 39.1 µM) | O=C(NC(CO)C(O)c1ccc([N+](=O)[O-])cc1)c1cccc2[nH]c(C3CCCCN3)nc12 (stereo not shown) [(L)-2-(2-piperidinyl)-1H-benzimidazole-4-[N-(1-hydroxymethyl-2-p-nitrophenylhydroxyethyl)]amide]
25 | 2.3 (≈ 5.29 µM) | O=C(NC(CO)C(O)c1ccc([N+](=O)[O-])cc1)c1cccc2[nH]c(-c3cnccn3)nc12 (stereo not shown) [(L)-2-(2-pyrazinyl)-1H-benzimidazole-4-[N-(1-hydroxymethyl-2-p-nitrophenylhydroxyethyl)]amide]
26 | 1.76 (≈ 4.06 µM) | O=C(NC(CO)C(O)c1ccc([N+](=O)[O-])cc1)c1cccc2[nH]c(-c3ccccn3)nc12 (stereo not shown) [(L)-2-(2-pyridyl)-1H-benzimidazole-4-[N-(1-hydroxymethyl-2-p-nitrophenylhydroxyethyl)]amide]
27 | 9.8 (≈ 22.6 µM) | O=C(NC(CO)C(O)c1ccc([N+](=O)[O-])cc1)c1cccc2[nH]c(-c3ncccn3)nc12 (stereo not shown) [(L)-2-(2-pyrimidinyl)-1H-benzimidazole-4-[N-(1-hydroxymethyl-2-p-nitrophenylhydroxyethyl)]amide]
28 | 5.3 (≈ 12.6 µM) | O=C(NC(CO)C(O)c1ccc([N+](=O)[O-])cc1)c1cccc2[nH]c(-c3ccc[nH]3)nc12 (stereo not shown) [(L)-2-(2-pyrrolyl)-1H-benzimidazole-4-[N-(1-hydroxymethyl-2-p-nitrophenylhydroxyethyl)]amide]
29 | 15.90 (≈ 36.3 µM) | O=C(NC(CO)C(O)c1ccc([N+](=O)[O-])cc1)c1cccc2[nH]c(-c3cccs3)nc12 (stereo not shown) [(L)-2-(2-thienyl)-1H-benzimidazole-4-[N-(1-hydroxymethyl-2-p-nitrophenylhydroxyethyl)]amide]
30 | 10.2 (≈ 21.2 µM) | O=C(NC(CO)C(O)c1ccc([N+](=O)[O-])cc1)c1cccc2[nH]c(-c3cc(O)c(O)c(O)c3)nc12 (stereo not shown) [(L)-2-(3,4,5-trihydroxyphenyl)-1H-benzimidazole-4-[N-(1-hydroxymethyl-2-p-nitrophenylhydroxyethyl)]amide]
31 | 8.6 (≈ 19.1 µM) | Cc1cc(C)c(-c2nc3c(C(=O)NC(CO)C(O)c4ccc([N+](=O)[O-])cc4)cccc3[nH]2)[nH]1 (stereo not shown) [(L)-2-(3,5-dimethyl-2-pyrrolyl)-1H-benzimidazole-4-[N-(1-hydroxymethyl-2-p-nitrophenylhydroxyethyl)]amide]
